Test results published in PubChem BioAssay AID1996.
In brackets after ≈: the same amount, converted by molar mass.

Conditions: buffer; pH 7.4; 200.0 µM

SMILES	solubility kinetic [µg/mL]
CN1CCc2c(sc(N)c2C(=O)c2ccc(Cl)cc2)C1	41.5 (≈ 135 µM)
O=C(NC1CCNCC1)C1CCCCC1	> 31.5
O=S(=O)(NCc1ccc2c(c1)OCO2)c1ccc(F)cc1	> 46.4
CC(C)CNc1c2c(nc3ccccc13)CCC2.Cl	> 41.5
O=C(NCc1ccccc1F)C12CC3CC(CC(C3)C1)C2	1 (≈ 3.48 µM)
O=C(CCc1ccccc1)Oc1ccccc1[N+](=O)[O-]	5.2 (≈ 19.2 µM)
COc1ccc(NC(=O)COC(=O)Cc2coc3cc(OC)ccc23)c(OC)c1	11.8 (≈ 29.5 µM)
Cc1cc(=O)[nH]c(Nc2ccc(N(C)C)cc2)n1	> 36.6
Cc1c(NCc2ccccc2O)c(=O)n(-c2ccccc2)n1C	> 46.4
Cl.c1ccc(CNc2c3c(nc4ccccc24)CCC3)cc1	> 46.6
O=C(NCCCN1CCOCC1)c1ccc2ccccc2c1	> 44.8
CC(=O)N(CCS(=O)(=O)c1ccc(Cl)cc1)Cc1cccs1	39.9 (≈ 111 µM)
N#C/C(=C\c1cccnc1)C(=O)Nc1ccccc1[N+](=O)[O-]	30.2 (≈ 103 µM)
CCN(c1ccccc1)S(=O)(=O)c1cc(NC(=O)C2CC2)ccc1Cl	26.2 (≈ 69.2 µM)
C=CCN(c1ccccc1OC)S(=O)(=O)c1cccc(C(=O)NCc2ccco2)c1	1 (≈ 2.34 µM)
CC1(C)CC2CC(C)(CN2C(=O)COC(=O)c2ccc(O)cc2O)C1 (stereo not given)	23.4 (≈ 67.4 µM)
Cc1ccc2cc(S(=O)(=O)NCCCN3CCOCC3)ccc2c1	> 52.3
COC(=O)c1c(NC(C)=O)csc1C	29.2 (≈ 137 µM)
O=[N+]([O-])c1cccc(Oc2cnccn2)c1	31.8 (≈ 146 µM)
CCOc1ccc(C(=O)NC(C)CCc2ccccc2)cc1 (stereo not given)	2.5 (≈ 8.41 µM)
CC(=O)c1ccc(NC(=O)CCCC(=O)c2ccccc2)cc1	3.6 (≈ 11.6 µM)
CCOC(=O)c1c(NC(=O)C2CCCO2)sc(C)c1C (stereo not given)	30 (≈ 101 µM)
COc1cc2c(cc1OC)CN(C(=O)c1oc3ccccc3c1C)CC2	27.2 (≈ 77.4 µM)
COc1ccc(NC(=O)c2cc(-c3ccccc3)on2)cc1OC	< 0.3

SMILES	solubility kinetic [µg/mL]
Cc1cccc(CCN=C(N)NS(=O)(=O)c2ccccc2)c1	> 47.6
O=C(CCc1ccc(S(=O)(=O)N2CCOCC2)cc1)Nc1ccccc1F	> 58.9
CCc1nc(Nc2cccc(OC)c2)c2oc3ccccc3c2n1.Cl	0.5
CCN(C(=O)COC(=O)c1ccco1)c1cccc2ccccc12	47.4 (≈ 147 µM)
CCN(CC)CCOCCOC(=O)C(CC)(CC)c1ccccc1	47.7 (≈ 142 µM)
CN(C)C(=O)c1ccc(NC(=O)c2ccccc2-c2ccccc2)cc1	> 51.7
CC(C)NCC(O)COCCOc1ccc(Cl)cc1.Cl (stereo not given)	> 48.6
CC(C)C(=O)Nc1cc2c3c(c1)CCN3C(=O)CC2	38.7 (≈ 150 µM)
CC(C)Cn1cnc2c1c(=O)[nH]c(=O)n2Cc1ccccc1	32.7 (≈ 110 µM)
Cc1cnc(NC(=O)COc2ccc3c(c2)CCC3)s1	1.2 (≈ 4.16 µM)
Cc1cc(Cl)ccc1NC(=S)NCc1ccc(F)cc1	2.8 (≈ 9.07 µM)
Cc1ccc(S(=O)(=O)N2CCC[C@H]2C(=O)Nc2ccccc2C)cc1	> 53.8
Cc1cccc(Oc2nc(-c3ccncc3)nc3ccccc23)c1	< 0.2
Cc1nc2ccccn2c1C(=O)CSc1ccccc1	> 42.4
CN(C)C(CNS(=O)(=O)c1cc([N+](=O)[O-])ccc1Cl)c1ccco1.Cl (stereo not given)	20.6
Cc1ccc2c(CN3CCC(C)CC3)cc(=O)oc2c1C	3.9 (≈ 13.7 µM)
Cc1cccc(C)c1OCC(=O)Nc1ccc2c(c1)OCCO2	23.5 (≈ 75 µM)
COc1cc(NC(=O)CCCN2C(=O)NC(C)(C)C2=O)cc(OC)c1	49.6 (≈ 142 µM)
Cl.O=C(OCCN1CCOCC1)c1ccccc1	39.6
CCOC(=O)C1CCN(C/C=C/c2ccccc2)CC1	27.2 (≈ 99.5 µM)
COc1ccccc1NC(=O)Nc1ccc(N2CCOCC2)cc1	45.8 (≈ 140 µM)
COC(=O)c1ccccc1NC(=O)CN1CCc2ccccc2C1	10.7 (≈ 33 µM)
Cc1[nH]c(=O)[nH]c(=O)c1/C=C/C(=O)O	> 29.4
CCOc1ncccc1C(=O)OCC(=O)c1ccc(OC)c(OC)c1	> 51.8

SMILES	solubility kinetic [µg/mL]
COc1cc(/C=C/[N+](=O)[O-])ccc1OC(=O)c1cccnc1	3.7 (≈ 12.3 µM)
Oc1ccc(C=Nc2ccc3ncccc3c2)c(O)c1	30.5 (≈ 115 µM)
Cc1cc(C)n2nc(SCc3ccccc3C(=O)O)nc2n1	> 47.2
Cc1cc2oc(=O)cc(CN3CCOCC3)c2cc1C(C)C	3.4 (≈ 11.3 µM)
COCC(=O)NC1CC(C)(C)Cc2c1cnn2-c1ccc(F)cc1 (stereo not given)	> 49.7
N#Cc1ccccc1COC(=O)c1cc(=O)c2ccccc2o1	16.7 (≈ 54.7 µM)
Cn1c(C(=O)O)c(S(=O)(=O)c2ccc(Cl)cc2)c2ccccc21	51.8 (≈ 148 µM)
CCc1ccc(NC(=O)NC(C)c2ccc3c(c2)OCO3)cc1 (stereo not given)	1 (≈ 3.2 µM)
Cc1ccc(C(C)C)c(OCCCN2CCc3ccccc3C2)c1.Cl	3.1
Nc1cc(C(=O)OCC(=O)N2CCOCC2)ccc1Cl	> 44.8
COc1ccccc1C(=O)Nc1nc(C)cc(C)n1	31.7 (≈ 123 µM)
O=C(O)CC(CC(=O)Nc1ccc(Oc2ccccc2)cc1)c1ccccc1 (stereo not given)	> 56.3
O=C(Nc1ccc2c(c1)OCO2)c1cc(-c2ccccc2Cl)on1	1.7 (≈ 4.96 µM)
N#C/C(=C\c1cccc(Br)c1)C(=O)N1CCCCC1	> 47.9
Cc1nc(C(=O)NCC(=O)c2ccc(Cl)cc2)c(C(F)(F)F)o1	8.4 (≈ 24.2 µM)
CCOC(=O)N(C)S(=O)(=O)c1ccccc1[N+](=O)[O-]	42.9 (≈ 149 µM)
O=C(Nc1ccccc1Br)c1c(F)cccc1Cl	13.5 (≈ 41.1 µM)
Cc1cccc(NC(=S)NC(=O)c2oc3ccccc3c2C)n1	< 0.2
COc1ccc(Br)cc1CN(C)C(=O)C1=CC=CN2CCS(=O)(=O)N=C12	43.1 (≈ 97.9 µM)
COc1ccc(C(=O)NCC(C)NC(=O)c2ccc(OC)c(OC)c2)cc1OC (stereo not given)	8.9 (≈ 22.1 µM)
NC1=NC(=O)C(Cc2ccc(Br)cc2)S1 (stereo not given)	36.5 (≈ 128 µM)
O=[N+]([O-])c1cccc(CN2CCN(c3ncccn3)CC2)c1	32.2 (≈ 108 µM)
Cc1cc(C)cc(Oc2coc3c(CN(C)C)c(O)ccc3c2=O)c1	> 50.9
Clc1ccc(N=C2SCCS2)cc1	11 (≈ 47.9 µM)

SMILES	solubility kinetic [µg/mL]
COc1ccc(C)cc1NC(=O)CC(NC(C)=O)c1ccccc1 (stereo not given)	> 49
COc1ccc(NC(=O)CN(C)C(=O)c2ccc(=O)[nH]c2)cc1	> 47.3
Cc1ccc(CSCc2ccc(C(=O)NC3CCCC3)o2)cc1	1.9 (≈ 5.77 µM)
CC(C)CNS(=O)(=O)c1cc2c3c(c1)CCC(=O)N3CCC2	> 48.4
O=C1Nc2ccccc2Sc2ccccc21	1.2 (≈ 5.28 µM)
Cc1csc(Nc2ccccc2)[n+]1C.[Br-]	30.2
O=[N+]([O-])c1ccc(Nc2nc(Cl)nc(NCCO)n2)cc1	2.6 (≈ 8.37 µM)
Cc1cccc2cc3c(nc12)-c1ccccc1C3=O	< 0.5
O=C(c1cc2cc(F)ccc2[nH]1)N1CCN(c2cccc(Cl)c2)CC1	0.5 (≈ 1.4 µM)
CSCCC(=O)N1CCCC(CO)(CCCc2ccccc2)C1 (stereo not given)	31.7 (≈ 94.5 µM)
COc1ccc(C(=O)COC(=O)c2ccc(N(C)C)cc2)cc1	< 0.7
COc1cc(C(=O)NCCSc2ccccc2)cc(OC)c1OC	49.9 (≈ 144 µM)
CC1=C/C(=N\OS(=O)(=O)c2ccccc2)C(C)=CC1=O	6.4 (≈ 22 µM)
Nc1cccc(P(=O)(c2ccccc2)c2ccccc2)c1	> 44
CN1C(=O)C(O)(C2CCCCCC2=O)c2ccccc21 (stereo not given)	> 41
Cc1sc2c(c1C)C(=O)/C(=C\Nc1ccncc1)S(=O)(=O)N2C	1.9 (≈ 5.44 µM)
CN(Cc1ccccc1)C(=O)COC(=O)C12CC3CC(CC(Br)(C3)C1)C2	18.8 (≈ 44.7 µM)
Cc1ccc(F)cc1NC(=O)CSc1ncccn1	> 41.6
COC(=O)c1ccc(CNC(=O)COC(=O)CCC(=O)c2ccc(F)cc2)cc1	5.5 (≈ 13.7 µM)
CC(=O)c1ccc(NC(=O)CN2CCCC2)cc1	> 36.9
COc1cc(NC(=S)Nc2ccc3c(c2)OCCO3)cc(OC)c1OC	> 56.5
O=[N+]([O-])c1ccc(O)c(Nc2c([N+](=O)[O-])ccc3nonc23)c1	> 47.6
O=C(COC(=O)c1ccc(Cl)nc1)NCCc1ccc(Cl)cc1	21.4 (≈ 60.6 µM)
O=C(NC1CCCCC1)c1cccc(OCc2ccccc2)c1	0.8 (≈ 2.59 µM)

SMILES	solubility kinetic [µg/mL]
CCCn1c(SCC(=O)Nc2ccc(Cl)cc2F)nc(O)cc1=O	> 55.8
CCc1noc(C)c1C(=O)OCC(=O)NCc1ccc(Cl)cc1	8.4 (≈ 24.9 µM)
CCCCN(c1ccccc1)S(=O)(=O)c1cccc2cccnc12	9 (≈ 26.4 µM)
CCCCCC1=NN2C(=O)CC(=O)N=C2S1	> 35.9
COc1ccc(C(=O)NCC(=O)c2ccccc2)cc1	> 40.4
N#CCc1c(C#N)c(N)nc(N2CCN(C=O)CC2)c1C#N	> 44.3
CCOC(=O)C1CCN(C(=S)NC2CC3C=CC2C3)CC1 (stereo not given)	> 46.3
O=Cc1c(NCCN2CCOCC2)c2ccccc2[nH]c1=O	> 45.2
Cn1c(O)c(C=Nc2ccccc2)c(=O)n(C)c1=O	24 (≈ 92.6 µM)
Cc1cccnc1NC(=O)c1ccc(COc2ccccc2)o1	> 46.3
c1ccc(CN2CCOCCOCCOCC2)cc1	> 39.8
Cn1ccnc1-c1ccc(-c2nccn2C)cc1	33.8 (≈ 142 µM)
CCC(=O)NCc1c(C)c(C)n(Cc2ccccc2)c1-n1cccc1	4.6 (≈ 13.7 µM)
CC1CC(C)CN(S(=O)(=O)c2ccc3oc(=O)ccc3c2)C1 (stereo not given)	14 (≈ 43.6 µM)
CCOc1cc(C(=O)Nc2ccc(N3CCOCC3)cc2)cc(Br)c1OC	2 (≈ 4.59 µM)
COc1ccc(Cl)cc1NC(=O)CCN1CCOCC1	> 44.8
Cn1ccnc1C(=O)c1ccc(N)cc1	> 30.2
O=C(CNC(=O)c1ccco1)NNC(=O)c1ccc(Br)cc1	> 54.9
CCN(C(=O)Nc1cccc(Cl)c1)c1ccccc1	18.6 (≈ 67.7 µM)
Cc1cccn2c(=O)c3cc(C(=O)NC4CCCC4)sc3nc12	4.9 (≈ 15 µM)
Cc1cc(=O)[nH]c(SCC(=O)Nc2nc3ccccc3s2)n1	> 49.9
CCOC(=O)c1sc(NC(=O)CC)c(C#N)c1C	1.4 (≈ 5.26 µM)
CC(C)CCNc1nc(N)c([N+](=O)[O-])c(NCCO)n1	42.3 (≈ 149 µM)
O=C(NCC(c1ccco1)N1CCOCC1)c1cccc(Cl)c1 (stereo not given)	> 50.2
